Results on four compounds are retold here after ChEMBL document CHEMBL1201862, “PubChem BioAssay data set” (2004).

Among the test systems are 786-0; A498; HCC 2998; HCT-116; HCT-15; HL-60; K562; MOLT-4; NCI-H23; NCI-H522; OVCAR-4; SF-268; SF-539; SNB-19; SR; UACC-257; COLO 205; IGROV-1; RPMI-8226.
Common to all, as to test: NCI anticancer screen, dose series, 48 h

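Where inhibition never reached the appropriate level, the endpoint shown equals the highest concentration tested. Otherwise, values were interpolated linearly from a five-concentration, 48-hour dose response in 96-well plates. Abbreviation: GI50, concentration required for 50% inhibition of growth.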 The source made the active and inactive calls. No stated cut-off is given here; in the data, active = GI50 up to about 1.1 µM and inactive = higher. Bounds are passed on as bounds.

With `N=C(N)Nc1nc2cc(N)ccc2o1`, the GI50 was > 100 µM (inactive) in the assay with 786-0; > 100 µM (inactive) in the assay with A498; > 100 µM (inactive) in the assay with HCC 2998; > 100 µM (inactive) in the assay with HCT-116; greater than 100 µM in the assay with HCT-15; > 100 µM (inactive) in the assay with HL-60. Also, the GI50 with K562, in the assay with MOLT-4, with NCI-H23, in the assay with NCI-H522, in the assay with OVCAR-4 and in the assay with SF-268 was > 100 µM (inactive) throughout. Further, the GI50 with SF-539, with SNB-19, in the assay on SR and in the assay with UACC-257 was > 100 µM (inactive) throughout.

Turning to `O=C(C#Cc1ccccc1)NC/C=C/c1ccccc1`, the GI50 in the assay on 786-0 is 24.2 µM (inactive); in the assay with A498 it was 52 µM (inactive); in the assay on COLO 205, 83.4 µM (inactive); in the assay with HCC 2998, 35.2 µM (inactive); in the assay on HCT-116, 41.7 µM (inactive); with HCT-15, 38.9 µM. The GI50 with HL-60 is 24.1 µM (inactive); in the assay on IGROV-1, 55.8 µM (inactive); in the assay with K562 it was 33.6 µM (inactive); with MOLT-4 it was 33.6 µM (inactive); in the assay on NCI-H23 it was 44.4 µM (inactive); in the assay on NCI-H522, 29.7 µM (inactive). Besides, the GI50 in the assay with OVCAR-4 was 48.1 µM (inactive); in the assay with SF-268 it was 31.5 µM (inactive); with SF-539, 33.3 µM (inactive); in the assay on SNB-19, 26.7 µM (inactive); with SR, 35.6 µM (inactive); with UACC-257, > 100 µM (inactive).

Regarding `COc1c(CC(=O)c2ccccc2)c2ccccc2n1C(C)=O`, the GI50 in the assay with 786-0 is 29.9 µM (inactive); with A498, > 100 µM (inactive); in the assay on COLO 205, > 100 µM (inactive); in the assay on HCC 2998, > 100 µM (inactive); in the assay on HCT-116 it was > 100 µM (inactive); with HCT-15, greater than 100 µM. In addition, the GI50 was > 100 µM (inactive) with HL-60; > 100 µM (inactive) with IGROV-1; > 100 µM (inactive) in the assay on K562; > 100 µM (inactive) with MOLT-4; 58.7 µM (inactive) with NCI-H23; > 100 µM (inactive) in the assay with OVCAR-4. Besides, the GI50 in the assay on RPMI-8226, in the assay on SF-539, with SNB-19, in the assay with SR and with UACC-257 was > 100 µM (inactive) each time.

For the compound `C(=C\c1ccccc1)/Cn1nc(-c2ccccc2)nc1-c1cnccn1`, the GI50 was > 100 µM (inactive) in the assay with 786-0; > 100 µM (inactive) in the assay on COLO 205; > 100 µM (inactive) with HCC 2998; > 100 µM (inactive) with HCT-116; greater than 100 µM in the assay with HCT-15; > 100 µM (inactive) in the assay with HL-60. In addition, the GI50 with IGROV-1 is > 100 µM (inactive); in the assay on K562, > 100 µM (inactive); in the assay on MOLT-4, > 100 µM (inactive); with NCI-H23, > 100 µM (inactive); in the assay with NCI-H522, > 100 µM (inactive); with OVCAR-4 it was 68.9 µM (inactive). In addition, the GI50 in the assay on RPMI-8226, in the assay with SF-268, in the assay with SF-539, in the assay on SNB-19, with SR and in the assay on UACC-257 was > 100 µM (inactive) each time.
